Converted amounts (≈) assume the structure as drawn. Values belong to the molecule of their own block, whether it stands above or below them.
Tests used:
Rattus norvegicus [1] = assay: Anti-inflammatory activity in Rattus norvegicus Wistar albino (rat) assessed as carrageenan-induced paw volume at 100 mg/kg, po administered 1 hr prior to carrageenan-challenge measured at 1 hr (reference value: 1.2075 +/- 0.0405 mm3); assay type: functional
Escherichia coli [2] = assay: Antimicrobial activity against Escherichia coli ATCC 25922 assessed as reduction in log10 CFU/ml at MIC after 6 hr by time kill study relative to control; assay type: functional; design: scale not given: the % may be the effect or the level left
Aspergillus flavus [3] = assay: Antimicrobial activity against Aspergillus flavus ATCC 15517 assessed as reduction in log10 CFU/ml at MIC after 12 hr by time kill study relative to control; assay type: functional; design: scale not given: the % may be the effect or the level left
Staphylococcus aureus [4] = assay: Antimicrobial activity against Staphylococcus aureus ATCC 25923 after 24 hr by broth micro dilution assay; assay type: functional; settings: ATCC 25923, 24 h
Pseudomonas aeruginosa [5] = assay: Antimicrobial activity against Pseudomonas aeruginosa ATCC 27853 assessed as reduction in log10 CFU/ml at MIC after 24 hr by time kill study relative to control; assay type: functional; design: scale not given: the % may be the effect or the level left
Escherichia coli [6] = assay: Antimicrobial activity against Escherichia coli ATCC 25922 assessed as reduction in log10 CFU/ml at MIC after 24 hr by time kill study relative to control; assay type: functional; design: scale not given: the % may be the effect or the level left
HeLa = assay: Cytotoxicity against Homo sapiens (human) HeLa cells after 24 hr by MTT assay; assay type: functional, cell-based
Staphylococcus aureus [7] = assay: Antimicrobial activity against Staphylococcus aureus ATCC 25923 assessed as reduction in log10 CFU/ml at MIC after 6 hr by time kill study relative to control; assay type: functional; design: scale not given: the % may be the effect or the level left
Candida albicans [8] = assay: Antimicrobial activity against Candida albicans ATCC 24433 assessed as reduction in log10 CFU/ml at MIC after 2 hr by time kill study relative to control; assay type: functional; design: scale not given: the % may be the effect or the level left
Aspergillus flavus [9] = assay: Antimicrobial activity against Aspergillus flavus ATCC 15517 assessed as reduction in log10 CFU/ml at MIC after 24 hr by time kill study relative to control; assay type: functional; design: scale not given: the % may be the effect or the level left
Aspergillus flavus [10] = assay: Antimicrobial activity against Aspergillus flavus ATCC 15517 assessed as reduction in log10 CFU/ml at MIC after 2 hr by time kill study relative to control; assay type: functional; design: scale not given: the % may be the effect or the level left
Staphylococcus aureus [11] = assay: Antimicrobial activity against Staphylococcus aureus ATCC 25923 assessed as reduction in log10 CFU/ml at MIC after 2 hr by time kill study relative to control; assay type: functional; design: scale not given: the % may be the effect or the level left
Escherichia coli [12] = assay: Antimicrobial activity against Escherichia coli ATCC 25922 after 24 hr by broth micro dilution assay; assay type: functional; settings: ATCC 25922, 24 h
Aspergillus flavus [13] = assay: Antimicrobial activity against Aspergillus flavus ATCC 15517 after 48 hr by broth micro dilution assay; assay type: functional; settings: ATCC 15517, 48 h
Candida albicans [14] = assay: Antimicrobial activity against Candida albicans ATCC 24433 after 48 hr by broth micro dilution assay; assay type: functional; settings: ATCC 24433, 48 h
Rattus norvegicus [15] = assay: Anti-inflammatory activity in Rattus norvegicus Wistar albino (rat) assessed as carrageenan-induced paw volume at 100 mg/kg, po administered 1 hr prior to carrageenan-challenge measured at 5 hr (reference value: 1.24 +/- 0.0754 mm3); assay type: functional
[16] = Cytotoxicity against Homo sapiens (human) Chang cells after 24 hr by MTT assay; assay type: functional, cell-based
Aspergillus flavus [17] = assay: Antimicrobial activity against Aspergillus flavus ATCC 15517 assessed as reduction in log10 CFU/ml at MIC after 6 hr by time kill study relative to control; assay type: functional; design: scale not given: the % may be the effect or the level left
Rattus norvegicus [18] = assay: Anti-inflammatory activity in Rattus norvegicus Wistar albino (rat) assessed as carrageenan-induced paw volume at 100 mg/kg, po administered 1 hr prior to carrageenan-challenge measured at 3 hr (reference value: 1.225 +/- 0.0484 mm3); assay type: functional
Pseudomonas aeruginosa [19] = assay: Antimicrobial activity against Pseudomonas aeruginosa ATCC 27853 assessed as reduction in log10 CFU/ml at MIC after 12 hr by time kill study relative to control; assay type: functional; design: scale not given: the % may be the effect or the level left
Pseudomonas aeruginosa [20] = assay: Antimicrobial activity against Pseudomonas aeruginosa ATCC 27853 assessed as reduction in log10 CFU/ml at MIC after 2 hr by time kill study relative to control; assay type: functional; design: scale not given: the % may be the effect or the level left
Escherichia coli [21] = assay: Antimicrobial activity against Escherichia coli ATCC 25922 assessed as reduction in log10 CFU/ml at MIC after 4 hr by time kill study relative to control; assay type: functional; design: scale not given: the % may be the effect or the level left
Pseudomonas aeruginosa [22] = assay: Antimicrobial activity against Pseudomonas aeruginosa ATCC 27853 assessed as reduction in log10 CFU/ml at MIC after 6 hr by time kill study relative to control; assay type: functional; design: scale not given: the % may be the effect or the level left
Aspergillus flavus [23] = assay: Antimicrobial activity against Aspergillus flavus ATCC 15517 assessed as reduction in log10 CFU/ml at MIC after 4 hr by time kill study relative to control; assay type: functional; design: scale not given: the % may be the effect or the level left
Escherichia coli [24] = assay: Antimicrobial activity against Escherichia coli ATCC 25922 assessed as reduction in log10 CFU/ml at MIC after 12 hr by time kill study relative to control; assay type: functional; design: scale not given: the % may be the effect or the level left
Rattus norvegicus [25] = assay: Anti-inflammatory activity in Rattus norvegicus Wistar albino (rat) assessed as carrageenan-induced paw volume at 100 mg/kg, po administered 1 hr prior to carrageenan-challenge measured at 2 hr (reference value: 1.4175 +/- 0.1931 mm3); assay type: functional
Candida albicans [26] = assay: Antimicrobial activity against Candida albicans ATCC 24433 assessed as reduction in log10 CFU/ml at MIC after 24 hr by time kill study relative to control; assay type: functional; design: scale not given: the % may be the effect or the level left
Candida albicans [27] = assay: Antimicrobial activity against Candida albicans ATCC 24433 assessed as reduction in log10 CFU/ml at MIC after 12 hr by time kill study relative to control; assay type: functional; design: scale not given: the % may be the effect or the level left
Candida albicans [28] = assay: Antimicrobial activity against Candida albicans ATCC 24433 assessed as reduction in log10 CFU/ml at MIC after 4 hr by time kill study relative to control; assay type: functional; design: scale not given: the % may be the effect or the level left
HEp-2 = assay: Cytotoxicity against Homo sapiens (human) Hep2 cells after 24 hr by MTT assay; assay type: functional, cell-based; settings: HEp-2, 24 h
Staphylococcus aureus [29] = assay: Antimicrobial activity against Staphylococcus aureus ATCC 25923 assessed as reduction in log10 CFU/ml at MIC after 12 hr by time kill study relative to control; assay type: functional; design: scale not given: the % may be the effect or the level left
Pseudomonas aeruginosa [30] = assay: Antimicrobial activity against Pseudomonas aeruginosa ATCC 27853 assessed as reduction in log10 CFU/ml at MIC after 4 hr by time kill study relative to control; assay type: functional; design: scale not given: the % may be the effect or the level left
Staphylococcus aureus [31] = assay: Antimicrobial activity against Staphylococcus aureus ATCC 25923 assessed as reduction in log10 CFU/ml at MIC after 24 hr by time kill study relative to control; assay type: functional; design: scale not given: the % may be the effect or the level left
Staphylococcus aureus [32] = assay: Antimicrobial activity against Staphylococcus aureus ATCC 25923 assessed as reduction in log10 CFU/ml at MIC after 4 hr by time kill study relative to control; assay type: functional; design: scale not given: the % may be the effect or the level left
Rattus norvegicus [33] = assay: Anti-inflammatory activity in Rattus norvegicus Wistar albino (rat) assessed as carrageenan-induced paw volume at 100 mg/kg, po administered 1 hr prior to carrageenan-challenge measured at 4 hr (reference value: 1.2825 +/- 0.0862 mm3); assay type: functional
Pseudomonas aeruginosa [34] = assay: Antimicrobial activity against Pseudomonas aeruginosa ATCC 27853 after 24 hr by broth micro dilution assay; assay type: functional; settings: ATCC 27853, 24 h
Candida albicans [35] = assay: Antimicrobial activity against Candida albicans ATCC 24433 assessed as reduction in log10 CFU/ml at MIC after 6 hr by time kill study relative to control; assay type: functional; design: scale not given: the % may be the effect or the level left
Escherichia coli [36] = assay: Antimicrobial activity against Escherichia coli ATCC 25922 assessed as reduction in log10 CFU/ml at MIC after 2 hr by time kill study relative to control; assay type: functional; design: scale not given: the % may be the effect or the level left
Rattus norvegicus [37] = assay: Anti-inflammatory activity in Rattus norvegicus Wistar albino (rat) assessed as inhibition of carrageenan-induced paw edema at 100 mg/kg, po administered 1 hr prior to carrageenan-challenge measured at 2 hr relative to control; assay type: functional

SMILES: O=c1c2cc(Cl)ccc2nc(-c2ccccc2)n1-c1ccc(F)cc1
Activity (Rattus norvegicus [1]): 1.22 mm3
Activity (Escherichia coli [2]): 100%
Activity (Aspergillus flavus [3]): 66.7%
MIC (Staphylococcus aureus [4]): 0.39 µg/mL (≈ 1.11 µM)
Activity (Pseudomonas aeruginosa [5]): 100%
Activity (Escherichia coli [6]): 100%
IC50 (HeLa): < 25 µg/mL
Activity (Staphylococcus aureus [7]): 100%
Activity (Candida albicans [8]): 44.4%
Activity (Aspergillus flavus [9]): 100%
Activity (Aspergillus flavus [10]): 11.1%
Activity (Staphylococcus aureus [11]): 33.3%
MIC (Escherichia coli [12]): 0.39 µg/mL (≈ 1.11 µM)
MIC (Aspergillus flavus [13]): 6.25 µg/mL (≈ 17.8 µM)
MIC (Candida albicans [14]): 1.56 µg/mL (≈ 4.45 µM)
Activity (Rattus norvegicus [15]): 1.21 mm3
IC50 [16]: 16.6 µg/mL (≈ 47.3 µM)
Activity (Aspergillus flavus [17]): 88.9%
Activity (Rattus norvegicus [18]): 1.21 mm3
Activity (Pseudomonas aeruginosa [19]): 100%
Activity (Pseudomonas aeruginosa [20]): 66.7%
Activity (Escherichia coli [21]): 66.7%
Activity (Pseudomonas aeruginosa [22]): 100%
Activity (Aspergillus flavus [23]): 22.2%
Activity (Escherichia coli [24]): 100%
Activity (Rattus norvegicus [25]): 1.2675 mm3
Activity (Candida albicans [26]): 100%
Activity (Candida albicans [27]): 100%
Activity (Candida albicans [28]): 66.7%
IC50 (HEp-2): 10.8 µg/mL (≈ 30.7 µM)
Activity (Staphylococcus aureus [29]): 100%
Activity (Pseudomonas aeruginosa [30]): 66.7%
Activity (Staphylococcus aureus [31]): 100%
Activity (Staphylococcus aureus [32]): 66.7%
Activity (Rattus norvegicus [33]): 1.275 mm3
MIC (Pseudomonas aeruginosa [34]): 0.78 µg/mL (≈ 2.22 µM)
Activity (Candida albicans [35]): 100%
Activity (Escherichia coli [36]): 33.3%

SMILES: O=c1c2cc(Cl)ccc2nc(-c2ccccc2)n1-c1cccc(Cl)c1
Activity (Rattus norvegicus [1]): 1.1325 mm3
MIC (Staphylococcus aureus [4]): 3.12 µg/mL (≈ 8.5 µM)
IC50 (HeLa): < 25 µg/mL
MIC (Escherichia coli [12]): 6.25 µg/mL (≈ 17 µM)
MIC (Aspergillus flavus [13]): > 100 µg/mL
MIC (Candida albicans [14]): > 100 µg/mL
Activity (Rattus norvegicus [15]): 1.125 mm3
IC50 [16]: < 6.25 µg/mL
Activity (Rattus norvegicus [18]): 1.06 mm3
inhibition in vivo at 100 mg/kg (Rattus norvegicus [37]): 86.8%
Activity (Rattus norvegicus [25]): 1.0625 mm3
IC50 (HEp-2): < 6.25 µg/mL
Activity (Rattus norvegicus [33]): 1.0575 mm3
MIC (Pseudomonas aeruginosa [34]): 25 µg/mL (≈ 68.1 µM)

MIC (Staphylococcus aureus [4]): 1.56 µg/mL (≈ 4.76 µM)
MIC (Escherichia coli [12]): 3.12 µg/mL (≈ 9.52 µM)
MIC (Aspergillus flavus [13]): 100 µg/mL (≈ 305 µM)
MIC (Candida albicans [14]): 50 µg/mL (≈ 153 µM)
MIC (Pseudomonas aeruginosa [34]): 6.25 µg/mL (≈ 19.1 µM)
SMILES: CN(C)CCn1c(-c2ccccc2)nc2ccc(Cl)cc2c1=O
Activity (Rattus norvegicus [1]): 1.1825 mm3
IC50 (HeLa): > 200 µg/mL
Activity (Rattus norvegicus [15]): 1.215 mm3
IC50 [16]: 33.4 µg/mL (≈ 102 µM)
Activity (Rattus norvegicus [18]): 1.1875 mm3
inhibition in vivo at 100 mg/kg (Rattus norvegicus [37]): 88.4%
IC50 (HEp-2): 20.5 µg/mL (≈ 62.5 µM)
Activity (Rattus norvegicus [33]): 1.165 mm3

SMILES: O=c1c2cc(Cl)ccc2nc(-c2ccccc2)n1-c1ccc(Cl)cc1
Activity (Rattus norvegicus [1]): 1.135 mm3
MIC (Staphylococcus aureus [4]): 3.12 µg/mL (≈ 8.5 µM)
IC50 (HeLa): < 25 µg/mL
MIC (Escherichia coli [12]): 12.5 µg/mL (≈ 34 µM)
MIC (Aspergillus flavus [13]): > 100 µg/mL
MIC (Candida albicans [14]): > 100 µg/mL
Activity (Rattus norvegicus [15]): 1.1825 mm3
IC50 [16]: 6.25 µg/mL (≈ 17 µM)
Activity (Rattus norvegicus [18]): 1.23 mm3
Activity (Rattus norvegicus [25]): 1.11 mm3
IC50 (HEp-2): < 25 µg/mL
Activity (Rattus norvegicus [33]): 1.1425 mm3
MIC (Pseudomonas aeruginosa [34]): 12.5 µg/mL (≈ 34 µM)

SMILES: CC(C)Cc1ccc(C(C)C(=O)O)cc1 (centres undefined) [IBUPROFEN]
inhibition in vivo at 100 mg/kg (Rattus norvegicus [37]): 65.3%

Source: ChEMBL document CHEMBL3045939, “Synthesis and evaluation of fused pyrimidine derivatives as anti-inflammatory, antiproliferative and antimicrobial agents” (Med Chem Res, 2012)
